From ChEMBL document CHEMBL1165927, “Insulinomimetic activity of two new gallotannins from the fruits of Capparis moonii” (2010)
The source made the active and inactive calls. The rule behind the calls is not given here.

Legend:
L6 [1] = experiment: Inhibition of glucose uptake in rat L6 myocyte at 50 uM after 24 hrs; assay type: functional; conditions: L6, 24 h, values are per cent of control
L6 [2] = experiment: Increase in PI3K mRNA expression in rat L6 cells at 10 ng/ml by RT-PCR; assay type: functional, cell-based
[3] = biological target: Insulin receptor (Rattus norvegicus) (UniProt P15127); experiment: […] in rat L6 cells after 24 hrs by immunoprecipitation; assay type: cell-based
Chain of Insulin receptor (Rattus norvegicus) (P15127 27-759 limits assumed): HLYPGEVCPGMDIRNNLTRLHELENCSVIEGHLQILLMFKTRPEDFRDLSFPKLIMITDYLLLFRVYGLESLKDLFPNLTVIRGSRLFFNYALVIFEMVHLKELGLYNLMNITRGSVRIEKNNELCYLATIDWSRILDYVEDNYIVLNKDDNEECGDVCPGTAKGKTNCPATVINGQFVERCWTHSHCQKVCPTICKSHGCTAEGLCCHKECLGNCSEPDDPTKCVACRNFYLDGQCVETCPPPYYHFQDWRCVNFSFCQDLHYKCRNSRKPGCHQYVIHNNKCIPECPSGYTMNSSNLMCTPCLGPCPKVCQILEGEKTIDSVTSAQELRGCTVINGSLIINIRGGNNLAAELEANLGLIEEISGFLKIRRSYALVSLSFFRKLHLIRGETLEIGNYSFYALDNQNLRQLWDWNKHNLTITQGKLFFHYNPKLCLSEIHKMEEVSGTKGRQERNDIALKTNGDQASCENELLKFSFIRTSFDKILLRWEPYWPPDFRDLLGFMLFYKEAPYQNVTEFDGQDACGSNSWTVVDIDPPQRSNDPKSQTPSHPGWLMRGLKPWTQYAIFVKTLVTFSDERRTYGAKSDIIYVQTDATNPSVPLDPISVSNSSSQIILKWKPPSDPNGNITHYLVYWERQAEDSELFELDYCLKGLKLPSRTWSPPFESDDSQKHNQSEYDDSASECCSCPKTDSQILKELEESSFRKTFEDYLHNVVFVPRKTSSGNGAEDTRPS
Chain of Insulin receptor (Rattus norvegicus) (P15127 764-1383 limits assumed): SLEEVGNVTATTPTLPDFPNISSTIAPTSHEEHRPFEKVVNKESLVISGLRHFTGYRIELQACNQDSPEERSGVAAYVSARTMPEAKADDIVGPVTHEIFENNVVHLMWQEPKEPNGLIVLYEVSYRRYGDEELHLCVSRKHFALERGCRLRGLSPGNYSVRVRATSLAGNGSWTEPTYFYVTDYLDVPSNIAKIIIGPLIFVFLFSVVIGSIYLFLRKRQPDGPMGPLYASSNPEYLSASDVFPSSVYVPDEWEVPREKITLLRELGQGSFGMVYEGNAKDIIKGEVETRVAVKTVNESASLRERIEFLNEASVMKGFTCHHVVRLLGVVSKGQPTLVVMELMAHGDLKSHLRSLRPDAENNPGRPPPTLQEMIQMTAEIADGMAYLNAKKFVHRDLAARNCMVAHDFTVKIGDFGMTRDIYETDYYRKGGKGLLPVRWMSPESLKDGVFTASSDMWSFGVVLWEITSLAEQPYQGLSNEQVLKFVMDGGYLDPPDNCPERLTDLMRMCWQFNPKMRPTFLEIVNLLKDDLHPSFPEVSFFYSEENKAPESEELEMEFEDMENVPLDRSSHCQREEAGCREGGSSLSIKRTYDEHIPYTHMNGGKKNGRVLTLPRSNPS

L6 [4] = experiment: Increase in GLUT4 mRNA expression in rat L6 cells at 50 uM by RT-PCR; assay type: functional, cell-based
L6 [5] = experiment: Inhibition of glucose uptake in rat L6 myocyte at 10 ng/ml after 24 hrs; assay type: functional, cell-based
[6] = biological target: T1, Insulin receptor substrate 1 (Rattus norvegicus) (UniProt P35570); experiment: […] in rat L6 cells after 24 hrs by immunoprecipitation; assay type: cell-based
T1 sequence (whole entry): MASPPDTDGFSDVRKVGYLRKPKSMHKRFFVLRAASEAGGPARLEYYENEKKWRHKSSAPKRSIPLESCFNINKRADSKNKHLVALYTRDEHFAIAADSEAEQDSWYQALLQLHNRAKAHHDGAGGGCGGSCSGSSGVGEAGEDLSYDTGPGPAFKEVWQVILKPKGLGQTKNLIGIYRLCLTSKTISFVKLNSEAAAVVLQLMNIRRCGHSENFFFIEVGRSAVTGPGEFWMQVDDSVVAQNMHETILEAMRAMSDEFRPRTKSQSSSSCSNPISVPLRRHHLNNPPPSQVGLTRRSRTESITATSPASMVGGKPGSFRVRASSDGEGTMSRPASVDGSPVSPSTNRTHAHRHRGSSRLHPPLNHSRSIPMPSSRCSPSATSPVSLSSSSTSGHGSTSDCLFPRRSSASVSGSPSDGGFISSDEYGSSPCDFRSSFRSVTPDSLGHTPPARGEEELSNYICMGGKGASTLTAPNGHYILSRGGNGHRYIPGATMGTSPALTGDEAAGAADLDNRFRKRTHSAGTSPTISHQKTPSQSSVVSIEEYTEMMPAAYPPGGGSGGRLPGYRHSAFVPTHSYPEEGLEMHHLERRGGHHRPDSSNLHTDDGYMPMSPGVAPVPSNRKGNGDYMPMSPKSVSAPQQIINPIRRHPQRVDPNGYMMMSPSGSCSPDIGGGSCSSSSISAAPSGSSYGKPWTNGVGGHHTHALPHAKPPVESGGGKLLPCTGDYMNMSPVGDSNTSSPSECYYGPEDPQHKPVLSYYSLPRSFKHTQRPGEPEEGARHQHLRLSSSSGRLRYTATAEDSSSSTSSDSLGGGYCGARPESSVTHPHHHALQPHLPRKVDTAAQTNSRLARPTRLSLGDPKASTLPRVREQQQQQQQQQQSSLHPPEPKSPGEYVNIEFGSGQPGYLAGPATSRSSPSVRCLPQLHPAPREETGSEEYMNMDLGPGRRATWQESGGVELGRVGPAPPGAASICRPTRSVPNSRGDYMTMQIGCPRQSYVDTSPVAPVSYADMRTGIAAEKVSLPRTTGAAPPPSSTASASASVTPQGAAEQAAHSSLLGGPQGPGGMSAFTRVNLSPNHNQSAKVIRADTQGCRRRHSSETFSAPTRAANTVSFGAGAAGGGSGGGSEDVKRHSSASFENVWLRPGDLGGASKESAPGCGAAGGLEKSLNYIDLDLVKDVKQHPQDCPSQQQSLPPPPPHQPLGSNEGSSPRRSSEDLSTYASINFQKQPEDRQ

L6 [7] = experiment: Increase in PI3K mRNA expression in rat L6 cells at 100 ng/ml by RT-PCR; assay type: functional, cell-based

inhibition [3] | inhibition [6] | Compound | residual activity at 50 µM (L6 [1]) [%] | Activity (L6 [2]) | Activity (L6 [4]) | inhibition (L6 [5]) | Activity (L6 [7])
– | – | CN(CCOc1ccc(CC2SC(=O)NC2=O)cc1)c1ccccn1 (stereo unspecified) [ROSIGLITAZONE] | 240 | – | – | – | –
Active | Active | O=C(O)CC(C(=O)O)C1c2c(C(=O)O[C@H]3[C@H](OC(=O)c4cc(O)c(O)c(O)c4)O[C@H](COC(=O)c4cc(O)c(O)c(O)c4)[C@@H](O)[C@H]3OC(=O)c3cc(O)c(O)c(O)c3)cc(O)c(O)c2OC(=O)C1O (stereo partly specified) | – | Active | Active | Dose-dependent effect | –
Active | Active | COC(=O)CC(C(=O)O)C1c2c(C(=O)O[C@H]3[C@H](OC(=O)c4cc(O)c(O)c(O)c4)O[C@H](COC(=O)c4cc(O)c(O)c(O)c4)[C@@H](O)[C@H]3OC(=O)c3cc(O)c(O)c(O)c3)cc(O)c(O)c2OC(=O)C1O (stereo partly specified) | – | – | Active | Dose-dependent effect | Active
